Laboratory results as given in patent publication US8247377B2, “Non-steroidal glucocorticoid inhibitors and their use in treating inflammation, allergy and auto-immune conditions” (Glaxo Group Limited, priority 2006, dated 2012).

Assays:
MMTV promoter = test: MMTV agonist assay in A549 MMTV cells; assay type: cell-based; conditions: Homo sapiens, A549, 6 h, >85% = full agonist, >20% and <85% = partial or efficacy selective agonist, read-out: average maximum asymptote in the MMTV agonist assay
Summary of the method: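 A549 cells stably carrying an MMTV promoter-driven renilla luciferase reporter were exposed to compound for 6 h at 37 °C in DMEM with 10% FCS and 25 mM HEPES. Luminescence read after renilla substrate addition; pEC50 and maximum asymptote estimated from dose-response curves.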

glucocorticoid receptor = biological target: T1, glucocorticoid receptor (Homo sapiens, UniProt P04150); test: Glucocorticoid receptor binding assay (fluorescence polarisation); conditions: competition with Alexa 555 fluorescently-labelled dexamethasone derivative, full length glucocorticoid receptor; read-out: glucocorticoid binding pIC50 (converted)
T1 construct: a partially purified full length glucocorticoid receptor
T1 sequence (P04150 1-777): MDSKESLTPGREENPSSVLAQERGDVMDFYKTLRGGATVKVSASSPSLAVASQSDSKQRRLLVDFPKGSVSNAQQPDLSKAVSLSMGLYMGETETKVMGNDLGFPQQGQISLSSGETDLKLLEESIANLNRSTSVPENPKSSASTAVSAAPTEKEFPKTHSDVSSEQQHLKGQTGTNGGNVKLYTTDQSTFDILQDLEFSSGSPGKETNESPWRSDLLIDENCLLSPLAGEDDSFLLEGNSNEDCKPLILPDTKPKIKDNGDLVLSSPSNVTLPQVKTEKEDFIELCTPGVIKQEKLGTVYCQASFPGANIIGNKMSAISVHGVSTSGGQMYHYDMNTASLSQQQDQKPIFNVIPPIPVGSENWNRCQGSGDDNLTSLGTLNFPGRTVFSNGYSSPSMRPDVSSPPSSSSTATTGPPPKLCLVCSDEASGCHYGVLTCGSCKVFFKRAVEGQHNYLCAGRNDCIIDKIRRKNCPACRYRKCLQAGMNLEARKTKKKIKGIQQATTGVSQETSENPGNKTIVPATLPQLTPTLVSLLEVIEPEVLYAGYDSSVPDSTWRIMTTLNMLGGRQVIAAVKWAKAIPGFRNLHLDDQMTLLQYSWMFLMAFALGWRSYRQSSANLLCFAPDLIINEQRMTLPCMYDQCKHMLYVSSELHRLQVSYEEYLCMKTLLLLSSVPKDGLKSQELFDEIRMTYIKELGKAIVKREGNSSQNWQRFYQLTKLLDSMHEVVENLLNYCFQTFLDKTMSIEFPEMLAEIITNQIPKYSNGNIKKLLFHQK
Summary of the method: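 Compounds in DMSO incubated with fluorescent dexamethasone and partially purified full-length GR plus stabilising buffer components, 2 hrs at room temperature in the dark. Displacement read as decrease in fluorescence polarisation; pIC50 estimated from dose-response curves.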

progesterone receptor = biological target: T2, progesterone receptor (Homo sapiens, UniProt P06401); test: Assay for progesterone receptor activity (CV-1 cells, PRb-BacMam/MMTV-BacMam); assay type: cell-based; conditions: CV-1 cells transduced with PRb-BacMam and MMTV-BacMam; read-out: pEC50 progesterone receptor activity (converted)
T2 construct: expressed in transfected cells; host or cells: CV-1 cells transduced with PRb-BacMam and MMTV-BacMam
T2 sequence (P06401 1-933): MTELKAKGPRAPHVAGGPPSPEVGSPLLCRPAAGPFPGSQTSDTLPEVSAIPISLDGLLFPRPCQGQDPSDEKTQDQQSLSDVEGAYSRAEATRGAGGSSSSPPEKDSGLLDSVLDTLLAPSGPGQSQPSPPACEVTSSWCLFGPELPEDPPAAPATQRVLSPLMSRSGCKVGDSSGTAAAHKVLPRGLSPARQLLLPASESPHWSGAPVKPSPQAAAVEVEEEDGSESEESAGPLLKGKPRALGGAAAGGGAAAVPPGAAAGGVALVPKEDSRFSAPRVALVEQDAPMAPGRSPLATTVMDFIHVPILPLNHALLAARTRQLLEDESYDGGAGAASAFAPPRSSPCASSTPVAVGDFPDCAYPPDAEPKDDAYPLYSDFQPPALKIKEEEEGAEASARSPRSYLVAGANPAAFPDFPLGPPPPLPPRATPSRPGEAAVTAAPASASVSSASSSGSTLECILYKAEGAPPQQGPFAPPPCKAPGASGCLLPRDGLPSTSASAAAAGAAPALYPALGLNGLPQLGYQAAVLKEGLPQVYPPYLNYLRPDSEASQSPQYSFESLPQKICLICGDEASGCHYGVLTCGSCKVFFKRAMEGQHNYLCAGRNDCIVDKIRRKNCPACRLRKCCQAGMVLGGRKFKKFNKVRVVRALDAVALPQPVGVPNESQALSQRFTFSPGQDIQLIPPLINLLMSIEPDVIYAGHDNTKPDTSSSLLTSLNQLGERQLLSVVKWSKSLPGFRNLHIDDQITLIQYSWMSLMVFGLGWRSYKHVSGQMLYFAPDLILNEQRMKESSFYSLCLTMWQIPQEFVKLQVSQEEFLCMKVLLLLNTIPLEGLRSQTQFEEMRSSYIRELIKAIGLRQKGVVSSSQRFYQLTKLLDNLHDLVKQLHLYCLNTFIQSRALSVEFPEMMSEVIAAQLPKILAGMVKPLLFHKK
Summary of the method: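 CV-1 cells co-transduced with PRb-BacMam and MMTV-BacMam (10% each), seeded onto compounds in DMEM with 10% serum. After 24 h, luminescence was read with Steadylite. pEC50 values were estimated from dose-response curves.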

| SMILES | Emax (MMTV promoter) [%] | IC50 (glucocorticoid receptor) [nM] | EC50 (progesterone receptor) [nM] |
| --- | --- | --- | --- |
| CCN(CC(O)(CNC(=O)c1cnn(-c2cc(F)cc(F)c2)c1N)C(F)(F)F)C(=O)c1c(F)cccc1F (racemic) [Example 35 (racemic), 5-amino-1-(3,5-difluorophenyl)-N-(2-{[[(2,6-difluorophenyl)carbonyl](ethyl)amino]methyl}-3,3,3-trifluoro-2-hydroxypropyl)-1H-pyrazole-4-carboxamide] | > 85 | ≤ 316 | > 1000 |
| CCN(CC(O)(CNC(=O)c1cnn(-c2ccc(F)cc2)c1N)C(F)(F)F)C(=O)c1c(F)cccc1F (racemic) [Example 5 (racemic), 5-Amino-N-(2-{[[(2,6-difluorophenyl)carbonyl](ethyl)amino]methyl}-3,3,3-trifluoro-2-hydroxypropyl)-1-(4-fluorophenyl)-1H-pyrazole-4-carboxamide] | > 85 | ≤ 316 | > 1000 |
| Nc1c(C(=O)NCC(O)(CNC(=O)c2c(Cl)cccc2Cl)C(F)(F)F)cnn1-c1ccc(F)cc1 (racemic) [Example 3 (racemic), 5-Amino-N-[2-({[(2,6-dichlorophenyl)carbonyl]amino}methyl)-3,3,3-trifluoro-2-hydroxypropyl]-1-(4-fluorophenyl)-1H-pyrazole-4-carboxamide] | 20 to 85 | ≤ 316 | > 1000 |
| CCN(CC(O)(CNC(=O)c1cnn(-c2ccccc2F)c1N)C(F)(F)F)C(=O)c1c(F)cccc1F (racemic) [Example 42 (racemic), 5-amino-N-(2-{[[(2,6-difluorophenyl)carbonyl](ethyl)amino]methyl}-3,3,3-trifluoro-2-hydroxypropyl)-1-(2-fluorophenyl)-1H-pyrazole-4-carboxamide] | > 85 | ≤ 316 | > 1000 |
| Nc1c(C(=O)NCC(O)(CN(CCF)C(=O)c2c(Cl)cccc2OC(F)F)C(F)(F)F)cnn1-c1ccc(F)cc1 (racemic) [Example 31 (racemic), 5-amino-N-(2-{[({2-chloro-6-[(difluoromethyl)oxy]phenyl}carbonyl)(2-fluoroethyl)amino]methyl}-3,3,3-trifluoro-2-hydroxypropyl)-1-(4-fluorophenyl)-1H-pyrazole-4-carboxamide] | > 85 | ≤ 316 | > 1000 |
| Nc1c(C(=O)NCC(O)(CN(CCF)C(=O)c2c(F)cccc2F)C(F)(F)F)cnn1-c1ccc(F)cc1 (racemic) [Example 17 (racemic), 5-amino-N-(2-{[[(2,6-difluorophenyl)carbonyl](2-fluoroethyl)amino]methyl}-3,3,3-trifluoro-2-hydroxypropyl)-1-(4-fluorophenyl)-1H-pyrazole-4-carboxamide] | > 85 | ≤ 316 | > 1000 |
| CCN(CC(O)(CNC(=O)c1cnn(-c2c(F)cccc2F)c1N)C(F)(F)F)C(=O)c1c(F)cccc1F (racemic) [Example 37 (racemic), 5-amino-1-(2,6-difluorophenyl)-N-(2-{[[(2,6-difluorophenyl)carbonyl](ethyl)amino]methyl}-3,3,3-trifluoro-2-hydroxypropyl)-1H-pyrazole-4-carboxamide] | > 85 | ≤ 316 | > 1000 |
| Nc1c(C(=O)NCC(O)(CNC(=O)c2c(Br)cccc2Br)C(F)(F)F)cnn1-c1ccc(F)cc1 (single isomer, unassigned) [Example 11 Enantiomer 1, 5-Amino-N-[2-({[(2,6-dibromophenyl)carbonyl]amino}methyl)-3,3,3-trifluoro-2-hydroxypropyl]-1-(4-fluorophenyl)-1H-pyrazole-4-carboxamide] | 20 to 85 | ≤ 316 | > 1000 |
| Nc1c(C(=O)NCC(O)(CNC(=O)c2c(F)cccc2C(F)(F)F)C(F)(F)F)cnn1-c1ccc(F)cc1 (racemic) [Example 19 (racemic), 5-amino-1-(4-fluorophenyl)-N-{3,3,3-trifluoro-2-[({[2-fluoro-6-(trifluoromethyl)phenyl]carbonyl}amino)methyl]-2-hydroxypropyl}-1H-pyrazole-4-carboxamide] | 20 to 85 | ≤ 316 | > 1000 |
| CCN(CC(O)(CNC(=O)c1cnn(-c2cccc(Cl)c2)c1N)C(F)(F)F)C(=O)c1c(F)cccc1F (racemic) [Example 41 (racemic), 5-amino-1-(3-chlorophenyl)-N-(2-{[[(2,6-difluorophenyl)carbonyl](ethyl)amino]methyl}-3,3,3-trifluoro-2-hydroxypropyl)-1H-pyrazole-4-carboxamide] | > 85 | ≤ 316 | > 1000 |
| Nc1c(C(=O)NCC(O)(CNC(=O)c2c(Cl)cccc2Br)C(F)(F)F)cnn1-c1ccc(F)cc1 (single isomer, unassigned) [Example 12 Enantiomer 1, 5-Amino-N-[2-({[(2-bromo-6-chlorophenyl)carbonyl]amino}methyl)-3,3,3-trifluoro-2-hydroxypropyl]-1-(4-fluorophenyl)-1H-pyrazole-4-carboxamide] | 20 to 85 | ≤ 316 | > 1000 |
| CCN(CC(O)(CNC(=O)c1cnn(-c2ccc(F)c(F)c2)c1N)C(F)(F)F)C(=O)c1c(F)cccc1F (racemic) [Example 33 (racemic), 5-amino-1-(3,4-difluorophenyl)-N-(2-{[[(2,6-difluorophenyl)carbonyl](ethyl)amino]methyl}-3,3,3-trifluoro-2-hydroxypropyl)-1H-pyrazole-4-carboxamide] | > 85 | ≤ 316 | > 1000 |
| Nc1c(C(=O)NCC(O)(CNC(=O)c2c(F)cccc2Cl)C(F)(F)F)cnn1-c1ccc(F)cc1 (racemic) [Example 7 (racemic), 5-Amino-N-[2-({[(2-chloro-6-fluorophenyl)carbonyl]amino}methyl)-3,3,3-trifluoro-2-hydroxypropyl]-1-(4-fluorophenyl)-1H-pyrazole-4-carboxamide] | 20 to 85 | ≤ 316 | > 1000 |
| Nc1c(C(=O)NCC(O)(CN(CCF)C(=O)c2c(Cl)cccc2Br)C(F)(F)F)cnn1-c1ccc(F)cc1 (racemic) [Example 30 (racemic), 5-amino-N-(2-{[[(2-bromo-6-chlorophenyl)carbonyl](2-fluoroethyl)amino]methyl}-3,3,3-trifluoro-2-hydroxypropyl)-1-(4-fluorophenyl)-1H-pyrazole-4-carboxamide] | > 85 | ≤ 316 | > 1000 |
